# Laboratory results from patent publication US11319299B2, “Substituted carboxamides as inhibitors of WDR5 protein-protein binding” (PROPELLON THERAPEUTICS INC., priority 2016, dated 2022).
# Target: WDR5 (Homo sapiens (Human), UniProt P61964)
# Assay: Surface Plasmon Resonance (SPR) assay, KD and residence time
# Assay type: binding
# Details: surface plasmon resonance (SPR) assay; read-out: WDR5 binding affinity (KD)
row,SMILES,Kd
1,"C[C@@H]1CN(c2cc(F)c(-c3cnc(N(C)C)nc3)cc2NC(=O)c2c[nH]c(=O)cc2C(F)(F)F)C[C@H](C)N1C [Example 103, N-[5-[2-(dimethylamino)pyrimidin-5-yl]-4-fluoro-2-[(3R,5S)-3,4,5-trimethylpiperazin-1-yl]phenyl]-6-oxo-4-(trifluoromethyl)-1H-pyridine-3-carboxamide]",0.168 nM
2,"COc1cc(-c2cc(NC(=O)c3c[nH]c(=O)cc3C(F)(F)F)c(N3C[C@@H](C)N(C)[C@@H](C)C3)cc2F)cnc1OC [Example 104, N-[5-(5,6-dimethoxypyridin-3-yl)-4-fluoro-2-[(3R,5S)-3,4,5-trimethylpiperazin-1-yl]phenyl]-6-oxo-4-(trifluoromethyl)-1H-pyridine-3-carboxamide]",2.41 nM
3,"C[C@@H]1CN(c2cc(F)c(-c3cnc(N4CCOCC4)nc3)cc2NC(=O)c2cccc3c2OCO3)C[C@H](C)N1C [Example 105, N-[4-fluoro-5-(2-morpholin-4-ylpyrimidin-5-yl)-2-[(3R,5S)-3,4,5-trimethylpiperazin-1-yl]phenyl]-1,3-benzodioxole-4-carboxamide]",466 nM
4,"COc1ccc(C(=O)Nc2cc(-c3cnc(N4CCOCC4)nc3)c(F)cc2N2C[C@@H](C)N(C)[C@@H](C)C2)cc1 [Example 106, N-[4-fluoro-5-(2-morpholin-4-ylpyrimidin-5-yl)-2-[(3R,5S)-3,4,5-trimethylpiperazin-1-yl]phenyl]-4-methoxybenzamide]",5400 nM
5,"C[C@@H]1CN(c2cc(F)c(-c3cnc(N4CCOCC4)nc3)cc2NC(=O)c2ccc(F)cc2)C[C@H](C)N1C [Example 107, 4-fluoro-N-[4-fluoro-5-(2-morpholin-4-ylpyrimidin-5-yl)-2-[(3R,5S)-3,4,5-trimethylpiperazin-1-yl]phenyl]benzamide]",137 nM
6,"C[C@@H]1CN(c2cc(F)c(-c3cnc(N4CCOCC4)nc3)cc2NC(=O)c2ccccc2Cl)C[C@H](C)N1C [Example 109, 2-chloro-N-[4-fluoro-5-(2-morpholin-4-ylpyrimidin-5-yl)-2-[(3R,5S)-3,4,5-trimethylpiperazin-1-yl]phenyl]benzamide]",175 nM
7,"COc1cccc(C(=O)Nc2cc(-c3cnc(N4CCOCC4)nc3)c(F)cc2N2C[C@@H](C)N(C)[C@@H](C)C2)c1F [Example 110, 2-fluoro-N-[4-fluoro-5-(2-morpholin-4-ylpyrimidin-5-yl)-2-[(3R,5S)-3,4,5-trimethylpiperazin-1-yl]phenyl]-3-methoxybenzamide]",1730 nM
8,"C[C@@H]1CN(c2cc(F)c(-c3cnc(N4CCOCC4)nc3)cc2NC(=O)c2ccc(F)c(F)c2)C[C@H](C)N1C [Example 111, 3,4-difluoro-N-[4-fluoro-5-(2-morpholin-4-ylpyrimidin-5-yl)-2-[(3R,5S)-3,4,5-trimethylpiperazin-1-yl]phenyl]benzamide]",70.6 nM
9,"COc1ccc(-c2cc(NC(=O)c3c[nH]c(=O)cc3C(F)(F)F)c(N3C[C@@H](C)N(C)[C@@H](C)C3)cc2F)cc1 [Example 112, N-[4-fluoro-5-(4-methoxyphenyl)-2-[(3R,5S)-3,4,5-trimethylpiperazin-1-yl]phenyl]-6-oxo-4-(trifluoromethyl)-1H-pyridine-3-carboxamide]",2.44 nM
10,"C[C@@H]1CN(c2cc(F)c(-c3ccc(OCC4CC4)cc3)cc2NC(=O)c2c[nH]c(=O)cc2C(F)(F)F)C[C@H](C)N1C [Example 113, N-[5-[4-(cyclopropylmethoxy)phenyl]-4-fluoro-2-[(3R,5S)-3,4,5-trimethylpiperazin-1-yl]phenyl]-6-oxo-4-(trifluoromethyl)-1H-pyridine-3-carboxamide]",0.858 nM
11,"C[C@@H]1CN(c2cc(F)c(-c3ccc(N4CCCC4)cc3)cc2NC(=O)c2c[nH]c(=O)cc2C(F)(F)F)C[C@H](C)N1C [Example 114, N-[4-fluoro-5-(4-pyrrolidin-1-ylphenyl)-2-[(3R,5S)-3,4,5-trimethylpiperazin-1-yl]phenyl]-6-oxo-4-(trifluoromethyl)-1H-pyridine-3-carboxamide]",4.06 nM
12,"CC(=O)Nc1cccc(C(=O)Nc2cc(-c3cnc(N4CCOCC4)nc3)c(F)cc2N2C[C@@H](C)N(C)[C@@H](C)C2)c1 [Example 115, 3-acetamido-N-[4-fluoro-5-(2-morpholin-4-ylpyrimidin-5-yl)-2-[(3R,5S)-3,4,5-trimethylpiperazin-1-yl]phenyl]benzamide]",> 200 nM
13,"C[C@@H]1CN(c2cc(F)c(-c3cccc(CN(C)C4COC4)c3)cc2NC(=O)c2c[nH]c(=O)cc2C(F)(F)F)C[C@H](C)N1C [Example 118, N-[4-fluoro-5-[3-[[methyl(oxetan-3-yl)amino]methyl]phenyl]-2-[(3R,5S)-3,4,5-trimethylpiperazin-1-yl]phenyl]-6-oxo-4-(trifluoromethyl)-1H-pyridine-3-carboxamide]",4.53 nM
14,"C[C@@H]1CN(c2cc(F)c(-c3cccc(CN4CCC(F)CC4)c3)cc2NC(=O)c2c[nH]c(=O)cc2C(F)(F)F)C[C@H](C)N1C [Example 119, N-[4-fluoro-5-[3-[(4-fluoropiperidin-1-yl)methyl]phenyl]-2-[(3R,5S)-3,4,5-trimethylpiperazin-1-yl]phenyl]-6-oxo-4-(trifluoromethyl)-1H-pyridine-3-carboxamide]",5.12 nM
15,"O=C(Nc1cc(-c2cnc(N3CCOCC3)nc2)c(F)cc1N1CCN2CCOCC2C1)c1c[nH]c(=O)cc1C(F)(F)F (stereo not drawn) [Example 120, N-[2-(3,4,6,7,9,9a-hexahydro-1H-pyrazino[2,1-c][1,4]oxazin-8-yl)-4-fluoro-5-(2-morpholin-4-ylpyrimidin-5-yl)phenyl]-6-oxo-4-(trifluoromethyl)-1H-pyridine-3-carboxamide]",> 200 nM
16,"C[C@@H]1CN(c2cc(F)c(-c3cnc(O)c(C#N)c3)cc2NC(=O)c2c[nH]c(=O)cc2C(F)(F)F)C[C@H](C)N1C [Example 123, N-[5-(5-cyano-6-hydroxypyridin-3-yl)-4-fluoro-2-[(3R,5S)-3,4,5-trimethylpiperazin-1-yl]phenyl]-6-oxo-4-(trifluoromethyl)-1H-pyridine-3-carboxamide]",9.88 nM
17,"C[C@@H]1CN(c2cc(F)c(-c3ccc(N4CCOCC4)c(F)c3)cc2NC(=O)c2c[nH]c(=O)cc2C(F)(F)F)C[C@H](C)N1C [Example 124, N-[4-fluoro-5-(3-fluoro-4-morpholin-4-ylphenyl)-2-[(3R,5S)-3,4,5-trimethylpiperazin-1-yl]phenyl]-6-oxo-4-(trifluoromethyl)-1H-pyridine-3-carboxamide]",0.439 nM
18,"C[C@@H]1CN(c2cc(F)c(-c3cccc(OCC4CC4)c3)cc2NC(=O)c2c[nH]c(=O)cc2C(F)(F)F)C[C@H](C)N1C [Example 125, N-[5-[3-(cyclopropylmethoxy)phenyl]-4-fluoro-2-[(3R,5S)-3,4,5-trimethylpiperazin-1-yl]phenyl]-6-oxo-4-(trifluoromethyl)-1H-pyridine-3-carboxamide]",10.9 nM
19,"C[C@@H]1CN(c2cc(F)c(-c3cnc(N4CCOCC4)nc3)cc2NC(=O)c2cccc(N(C)C)c2)C[C@H](C)N1C [Example 126, 3-(dimethylamino)-N-[4-fluoro-5-(2-morpholin-4-ylpyrimidin-5-yl)-2-[(3R,5S)-3,4,5-trimethylpiperazin-1-yl]phenyl]benzamide]",3500 nM
20,"C[C@@H]1CN(c2cc(F)c(-c3cnc(N4CCOCC4)nc3)cc2NC(=O)c2cocn2)C[C@H](C)N1C [Example 127, N-[4-fluoro-5-(2-morpholin-4-ylpyrimidin-5-yl)-2-[(3R,5S)-3,4,5-trimethylpiperazin-1-yl]phenyl]-1,3-oxazole-4-carboxamide]",> 200 nM
21,"CC(C)Oc1ncc(-c2cc(NC(=O)c3c[nH]c(=O)cc3C(F)(F)F)c(N3C[C@@H](C)N(C)[C@@H](C)C3)cc2F)cn1 [Example 130, N-[4-fluoro-5-(2-propan-2-yloxypyrimidin-5-yl)-2-[(3R,5S)-3,4,5-trimethylpiperazin-1-yl]phenyl]-6-oxo-4-(trifluoromethyl)-1H-pyridine-3-carboxamide]",0.656 nM
22,"C[C@@H]1CN(c2cc(F)c(-c3ccc(C#N)nc3)cc2NC(=O)c2c[nH]c(=O)cc2C(F)(F)F)C[C@H](C)N1C [Example 131, N-[5-(6-cyanopyridin-3-yl)-4-fluoro-2-[(3R,5S)-3,4,5-trimethylpiperazin-1-yl]phenyl]-6-oxo-4-(trifluoromethyl)-1H-pyridine-3-carboxamide]",2.43 nM
23,"Cc1cc(-c2cc(NC(=O)c3c[nH]c(=O)cc3C(F)(F)F)c(N3C[C@@H](C)N(C)[C@@H](C)C3)cc2F)cnc1C#N [Example 132, N-[5-(6-cyano-5-methylpyridin-3-yl)-4-fluoro-2-[(3R,5S)-3,4,5-trimethylpiperazin-1-yl]phenyl]-6-oxo-4-(trifluoromethyl)-1H-pyridine-3-carboxamide]",1.4 nM
24,"C[C@@H]1CN(c2cc(F)c(-c3ccnc(C#N)c3)cc2NC(=O)c2c[nH]c(=O)cc2C(F)(F)F)C[C@H](C)N1C [Example 133, N-[5-(2-cyanopyridin-4-yl)-4-fluoro-2-[(3R,5S)-3,4,5-trimethylpiperazin-1-yl]phenyl]-6-oxo-4-(trifluoromethyl)-1H-pyridine-3-carboxamide]",1.33 nM
25,"COc1cc(-c2cc(NC(=O)c3c[nH]c(=O)cc3C(F)(F)F)c(N3C[C@@H](C)N(C)[C@@H](C)C3)cc2F)cc(C(F)(F)F)n1 [Example 134, N-[4-fluoro-5-[2-methoxy-6-(trifluoromethyl)pyridin-4-yl]-2-[(3R,5S)-3,4,5-trimethylpiperazin-1-yl]phenyl]-6-oxo-4-(trifluoromethyl)-1H-pyridine-3-carboxamide]",1.01 nM
26,"COc1cc(-c2cc(NC(=O)c3c[nH]c(=O)cc3C(F)(F)F)c(N3C[C@@H](C)N(C)[C@@H](C)C3)cc2F)cc(C)n1 [Example 135, N-[4-fluoro-5-(2-methoxy-6-methylpyridin-4-yl)-2-[(3R,5S)-3,4,5-trimethylpiperazin-1-yl]phenyl]-6-oxo-4-(trifluoromethyl)-1H-pyridine-3-carboxamide]",2.81 nM
27,"COc1ncc(-c2cc(NC(=O)c3c[nH]c(=O)cc3C(F)(F)F)c(N3C[C@@H](C)N(C)[C@@H](C)C3)cc2F)cc1C(F)(F)F [Example 136, N-[4-fluoro-5-[6-methoxy-5-(trifluoromethyl)pyridin-3-yl]-2-[(3R,5S)-3,4,5-trimethylpiperazin-1-yl]phenyl]-6-oxo-4-(trifluoromethyl)-1H-pyridine-3-carboxamide]",0.463 nM
